The values that follow come from patent publication US9296759B2, “Amino-oxazine and amino-dihydrothiazine compounds as beta-secretase modulators and methods of use” (AMGEN INC., priority 2011, dated 2016).

Experiment [1] addresses BACE 1 (beta secretase enzyme) (Homo sapiens (Human), UniProt P56817). Put plainly: In vitro enzymatic BACE FRET assay. The experiment is classed as biochemical. The settings on record: average IC50. The method, boiled down: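 The enzyme was tested in 0.05 M acetate, pH 4.2, with 10% DMSO final and 100 uM genapol. The reaction was started with 50 nM quenched FRET peptide substrate, incubated one hour and stopped with Tris to neutral pH. Cleavage was read as fluorescence ([…]).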

The test system of the next experiment is Abeta 40. In words: In vivo inhibition of beta-secretase: Abeta 40 reduction in CSF and brain of the rat. The settings on record: 10 mpk, after 4 hrs. An excerpt:
In Vivo Inhibition of Beta-Secretase
Several animal models, including mouse, rat, dog, and monkey, may be used to screen for inhibition of beta-secretase activity in vivo following administration of a test compound sample. Animals used in this invention can be wild type, transgenic, or gene knockout animals. For example, the Tg2576 mouse model, prepared and conducted as described in Hsiao et al., 1996, Science 274, 99-102, and other non-transgenic or gene knockout animals are useful to analyze in vivo inhibition of Amyloid beta peptide (Abeta) production in the presence of inhibitory test compounds. Generally, 2 to 18 month old Tg2576 mice, gene knockout mice or non-transgenic animals are administered test compounds formulated in vehicles, such as cyclodextran, phosphate buffers, hydroxypropyl methylcellulose or other suitable vehicles. One to twenty-four hours following the administration of compound, animals are sacrificed, and brains as well as cerebrospinal fluid (CSF) and plasma are removed for analysis of A-beta levels and drug or test compound concentrations (Dovey et al., 2001, Journal of Neurochemistry, 76, 173-181) Beginning at time 0, animals are administered by oral gavage, or other means of delivery such as intravenous injection, an inhibitory test compound of up to 100 mg/kg in a standard, conventional formulation, such as 2% hydroxypropyl methylcellulose, 1% Tween80. A separate group of animals receive 2% hydroxypropyl methylcellulose, 1% Tween80 alone, containing no test compound, and serve as a vehicle-control group. At the end of the test period, animals are sacrificed and brain tissues, plasma or cerebrospinal fluid are collected. Brains are either homogenized in 10 volumes (w/v) of 0.2% diethylamine (DEA) in 50 mM NaCl (Best et al., 2005, Journal of Pharmacology and Experimental Therapeutics, 313, 902-908), or in 10 volumes of 0.5% TritonX-100 in Tris-buffered saline (pH at about 7.6). Homogenates are centrifuged at 355,000 g, 4° C. for 30 minutes. CSF or brain supernatants are then analyzed for the presence of A-beta peptide by specific sandwich ELISA assays based on ECL (Electrochemiluminescence) technology. For example, rat Abeta40 is measured using biotinylated-4G8 (Signet) as a capture antibody and Fab40 (an in-house antibody specific to the C-terminal of Abeta40) as a detection antibody. For example, 4 hours after administration of 30 mg/kg oral dose of the test compound in 2% hydroxypropyl methylcellulose, 1% Tween80 (pH2.2) to 200 g male Sprague Dawley rats, amyloid beta peptide levels are measured for reduction by X % and Y % in cerebrospinal fluid and brain, respectively, when compared to the levels measured in the vehicle-treated rats.
• Oral: 2% HPMC, 1% Tween80, pH 2.2 • IV: 5% EtOH, 45% Propylene glycol in 5% Dextrose
The compounds of the invention may be shown to reduce the formation and/or deposition of amyloid beta peptide in the cerebrospinal fluid (CSF) as well as in the brain of a mouse or rat at either 3 mpk, 10 mpk or 30 mpk (mpk=mg compound per kg weight of the animal) dosing concentrations after 4 hrs.

A further experiment has as its target Cathepsin D (Homo sapiens (Human), UniProt P07339). Put plainly: In vitro enzymatic Cat D (Cathepsin D) FRET assay. The experiment is classed as biochemical. The settings on record: average IC50. The method, boiled down: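 CHO-expressed recombinant enzyme in 0.05 M citrate pH 3.5, 5 mM CHAPS, 10% DMSO final; reaction started with 20 nM quenched-peptide FRET substrate (cleavage site spanned by fluorophore/quencher), 1 h incubation.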

Experiment [2] concerns Aβ40 in conditioned medium of cells stably expressing Amyloid Precursor Protein (APP). In words: In vitro BACE cell-based assay (HEK cell assay, Aβ40 sandwich ELISA). The settings on record: Homo sapiens, HEK293; average IC50, Aβ40, 24 h incubation. In outline: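 Aβ40 in supernatants was measured by time-resolved fluorescence sandwich ELISA using pAb40 capture and biotinylated 6E10 detection, with antibody incubations at 4 °C. Stable APP cells were exposed to compounds for 24 h in a 10-point series (top dose 100 or 10 µM, 0.1% DMSO). IC50 was fitted from the concentration-response.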
On the technique in general: ELISA stands for enzyme-linked immunosorbent assay.

Setting [3] is: Abeta 40, rat CSF, read-out: % reduction of rat CSF levels at 10 pmk.
The mark [4] stands for this setting: Abeta 40, rat brain, read-out: % reduction of rat brain levels at 10 mpk.

Where two headings read alike, the source gives them in different places. Where only a bound is given, the exact number is not on record here.

Chain of Cathepsin D (P07339 65-412, species assumed): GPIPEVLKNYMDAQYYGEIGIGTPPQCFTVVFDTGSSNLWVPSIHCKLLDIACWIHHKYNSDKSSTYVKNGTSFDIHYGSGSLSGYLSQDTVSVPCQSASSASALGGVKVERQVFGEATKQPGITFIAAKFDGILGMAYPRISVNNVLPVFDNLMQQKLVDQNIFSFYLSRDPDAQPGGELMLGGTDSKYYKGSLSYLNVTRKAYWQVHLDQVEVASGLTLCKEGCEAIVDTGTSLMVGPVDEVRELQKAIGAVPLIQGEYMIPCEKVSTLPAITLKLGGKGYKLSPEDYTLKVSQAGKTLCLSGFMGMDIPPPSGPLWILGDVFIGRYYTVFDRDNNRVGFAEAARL
Chain of BACE 1 (beta secretase enzyme) (P56817 46-501): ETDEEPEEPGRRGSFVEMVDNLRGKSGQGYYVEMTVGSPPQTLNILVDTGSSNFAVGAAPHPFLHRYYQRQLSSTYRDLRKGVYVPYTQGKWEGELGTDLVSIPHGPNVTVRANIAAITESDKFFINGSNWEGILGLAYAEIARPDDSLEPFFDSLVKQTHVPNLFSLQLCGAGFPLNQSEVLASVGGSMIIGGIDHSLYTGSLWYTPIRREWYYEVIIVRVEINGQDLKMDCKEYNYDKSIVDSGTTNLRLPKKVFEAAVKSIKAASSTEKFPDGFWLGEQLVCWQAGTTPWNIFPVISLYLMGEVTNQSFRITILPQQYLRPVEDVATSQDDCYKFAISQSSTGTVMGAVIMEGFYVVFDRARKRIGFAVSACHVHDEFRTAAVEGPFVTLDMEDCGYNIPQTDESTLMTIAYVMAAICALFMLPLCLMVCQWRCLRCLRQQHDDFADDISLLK

In the case of `NC1=N[C@@]2(CCO1)c1cc(NC(=O)c3ccc(Cl)cn3)ccc1Oc1ncc(Br)cc12` [Example 34, N-((5S)-2′-amino-3-bromo-5′,6′-dihydrospiro[chromeno[2,3-b]pyridine-5,4′-[1,3]oxazin]-7-yl)-5-chloro-2-pyridinecarboxamide], the concentration for half-maximal inhibition (IC50) (in general, the midpoint of a concentration-inhibition curve) in experiment [1] is 13.6 nM; at Cathepsin D, 245 µM; in experiment [2] it was 7 nM. For the same compound, the inhibition in vivo at 10 mg/kg with Abeta 40 (setting [3]) was 64%; with Abeta 40 (setting [4]), 17%.

As for `NC1=N[C@@]2(CCO1)c1cc(NC(=O)c3ccc(Cl)cn3)ccc1Oc1c2cc(C2=CCCOC2)nc1F` [Example 39, N-((5S)-2′-amino-3-(5,6-dihydro-2H-pyran-3-yl)-1-fluoro-5′,6′-dihydrospiro[chromeno[2,3-c]pyridine-5,4′-[1,3]oxazin]-7-yl)-5-chloro-2-pyridinecarboxamide], the IC50 in experiment [1] is 2 nM; on Cathepsin D, > 400 µM; in experiment [2], 0.5 nM. The inhibition in vivo at 10 mg/kg in the experiment on Abeta 40 (setting [3]) is 85%; in the experiment with Abeta 40 (setting [4]) it was 80%.

In the case of `COc1cnc(C(=O)Nc2ccc3c(c2)[C@@]2(CCOC(N)=N2)c2cc(C4=CCCOC4)nc(F)c2O3)cn1` [Example 51, N-((5S)-2′-amino-3-(5,6-dihydro-2H-pyran-3-yl)-1-fluoro-5′,6′-dihydrospiro[chromeno[2,3-c]pyridine-5,4′-[1,3]oxazin]-7-yl)-5-methoxy-2-pyrazinecarboxamide], the IC50 in experiment [1] is 2.7 nM; at Cathepsin D, > 400 µM; in experiment [2], 4.2 nM. The inhibition in vivo at 10 mg/kg in the experiment on Abeta 40 (setting [3]) stood at 85%; in the experiment with Abeta 40 (setting [4]), 76%.

For the compound `COc1cnc(C(=O)Nc2ccc3c(c2)[C@@]2(CCOC(N)=N2)c2cc(C4CC4)nc(F)c2O3)cn1` [Example 54, N-((5S)-2′-amino-3-cyclopropyl-1-fluoro-5′,6′-dihydrospiro[chromeno[2,3-c]pyridine-5,4′-[1,3]oxazin]-7-yl)-5-methoxy-2-pyrazinecarboxamide], the IC50 in experiment [1] is 5 nM; at Cathepsin D, 269 µM; in experiment [2], 9.6 nM. Besides, the inhibition in vivo at 10 mg/kg was 77% in the experiment on Abeta 40 (setting [3]) and 65% in the experiment on Abeta 40 (setting [4]).

In the case of `NC1=N[C@@]2(CCO1)c1cc(NC(=O)c3ccc(Cl)cn3)ccc1Oc1cnc(C3=CCCOC3)cc12` [Example 59, N-((5S)-2′-amino-3-(5,6-dihydro-2H-pyran-3-yl)-5′,6′-dihydrospiro[chromeno[2,3-c]pyridine-5,4′-[1,3]oxazin]-7-yl)-5-chloro-2-pyridinecarboxamide], the results for the IC50 (in experiment [1]; at Cathepsin D; in experiment [2]) were 3 nM, 400 µM and 0.5 nM, respectively. The inhibition in vivo at 10 mg/kg was 57% in the experiment with Abeta 40 (setting [3]) and 50% with Abeta 40 (setting [4]).

As to `NC1=N[C@@]2(CCO1)c1cc(NC(=O)c3ccc(Cl)cn3)ccc1Oc1c2cc(C2=CCOCC2)nc1F` [Example 63, N-((5S)-2′-amino-3-(3,6-dihydro-2H-pyran-4-yl)-1-fluoro-5′,6′-dihydrospiro[chromeno[2,3-c]pyridine-5,4′-[1,3]oxazin]-7-yl)-5-chloro-2-pyridinecarboxamide], the IC50 in experiment [1] worked out at 1.4 nM; at Cathepsin D it was 400 µM; in experiment [2] it was 0.1 nM. For the same compound, the inhibition in vivo at 10 mg/kg in the experiment with Abeta 40 (setting [3]) came to 80%; in the experiment on Abeta 40 (setting [4]), 75%.

For the compound `COc1cnc(C(=O)Nc2ccc3c(c2)[C@@]2(CCOC(N)=N2)c2cc(C4=CCOCC4)nc(F)c2O3)cn1` [Example 65, N-((5S)-2′-amino-3-(3,6-dihydro-2H-pyran-4-yl)-1-fluoro-5′,6′-dihydrospiro[chromeno[2,3-c]pyridine-5,4′-[1,3]oxazin]-7-yl)-5-methoxy-2-pyrazinecarboxamide], the IC50 in experiment [1] was 0.9 nM; on Cathepsin D, 400 µM; in experiment [2], 0.051 nM. Moreover, the inhibition in vivo at 10 mg/kg in the experiment with Abeta 40 (setting [3]) is 83%; in the experiment with Abeta 40 (setting [4]) it was 71%.

`COc1cnc(C(=O)Nc2ccc3c(c2)[C@@]2(CCSC(N)=N2)c2cc(C4=CCCOC4)nc(F)c2O3)cn1` [Example 66, N-((5S)-2′-amino-3-(5,6-dihydro-2H-pyran-3-yl)-1-fluoro-5′,6′-dihydrospiro[chromeno[2,3-c]pyridine-5,4′-[1,3]thiazin]-7-yl)-5-methoxy-2-pyrazinecarboxamide]: the half-inhibitory concentration (IC50) in experiment [1] was 1.8 nM; on Cathepsin D, 179 µM; in experiment [2] it was 1 nM. Besides, the inhibition in vivo at 10 mg/kg in the experiment on Abeta 40 (setting [3]) amounted to 77%; in the experiment on Abeta 40 (setting [4]) it was 66%.

`COc1cnc(C(=O)Nc2ccc3c(c2)[C@@]2(CCSC(N)=N2)c2cc(C4=CCOCC4)nc(F)c2O3)cn1` [Example 67, N-((5S)-2′-amino-3-(3,6-dihydro-2H-pyran-4-yl)-1-fluoro-5′,6′-dihydrospiro[chromeno[2,3-c]pyridine-5,4′-[1,3]thiazin]-7-yl)-5-methoxy-2-pyrazinecarboxamide]: the IC50 in experiment [1] worked out at 1.6 nM; at Cathepsin D, 160 µM; in experiment [2] it was 1.4 nM. Also, the inhibition in vivo at 10 mg/kg stood at 66% in the experiment with Abeta 40 (setting [3]) and 58% with Abeta 40 (setting [4]).

For the compound `NC1=N[C@@]2(CCS1)c1cc(NC(=O)c3ccc(Cl)cn3)ccc1Oc1c2cc(C2=CCCOC2)nc1F` [Example 68, N-((5S)-2′-amino-3-(5,6-dihydro-2H-pyran-3-yl)-1-fluoro-5′,6′-dihydrospiro[chromeno[2,3-c]pyridine-5,4′-[1,3]thiazin]-7-yl)-5-chloro-2-pyridinecarboxamide], the results for the 50% inhibitory concentration (IC50) (in experiment [1]; at Cathepsin D; in experiment [2]) were 0.8 nM, 217 µM and 0.5 nM, respectively. Also, the inhibition in vivo at 10 mg/kg turned out to be 77% in the experiment on Abeta 40 (setting [3]) and 73% in the experiment on Abeta 40 (setting [4]).

As to `COc1cnc(C(=O)Nc2ccc3c(c2)[C@@]2(CCOC(N)=N2)c2cc(-c4cncc(F)c4)nc(F)c2O3)cn1` [Example 70, N-((5S)-2′-amino-1-fluoro-3-(5-fluoro-3-pyridinyl)-5′,6′-dihydrospiro[chromeno[2,3-c]pyridine-5,4′-[1,3]oxazin]-7-yl)-5-methoxy-2-pyrazinecarboxamide], the IC50 in experiment [1] worked out at 1.3 nM; on Cathepsin D, 400 µM; in experiment [2], 0.6 nM. Also, the inhibition in vivo at 10 mg/kg with Abeta 40 (setting [3]) was found to be 70%; in the experiment with Abeta 40 (setting [4]), 59%.

Consider `NC1=N[C@@]2(CCO1)c1cc(NC(=O)c3ccc(Cl)cn3)ccc1Oc1c2cc(-c2cncc(F)c2)nc1F` [Example 71, N-((5S)-2′-amino-1-fluoro-3-(5-fluoro-3-pyridinyl)-5′,6′-dihydrospiro[chromeno[2,3-c]pyridine-5,4′-[1,3]oxazin]-7-yl)-5-chloro-2-pyridinecarboxamide], for which the concentration for half-maximal inhibition (IC50) is 0.6 nM in experiment [1], 400 µM on Cathepsin D and 0.3 nM in experiment [2]. Also, the results for the inhibition in vivo at 10 mg/kg in the experiment with Abeta 40 (setting [3]) and with Abeta 40 (setting [4]) were 79% and 70%, respectively.

Turning to `NC1=N[C@@]2(CCO1)c1cc(NC(=O)c3ccc(F)cn3)ccc1Oc1c2cc(C2=CCOCC2)nc1F` [Example 72, N-((5S)-2′-amino-3-(3,6-dihydro-2H-pyran-4-yl)-1-fluoro-5′,6′-dihydrospiro[chromeno[2,3-c]pyridine-5,4′-[1,3]oxazin]-7-yl)-5-fluoro-2-pyridinecarboxamide], the 50% inhibitory concentration (IC50) in experiment [1] was determined as 1.1 nM; on Cathepsin D, 358 µM; in experiment [2], 0.2 nM. For the same compound, the figures for the inhibition in vivo at 10 mg/kg in the experiment with Abeta 40 (setting [3]) and in the experiment with Abeta 40 (setting [4]) were 78% and 72%, respectively.
